Consider ten molecules from ChEMBL document CHEMBL3272051, “Some 9-hydroxycannabinoid-like compounds. Synthesis and evaluation of analgesic and behavioral properties” (J Med Chem, 1979).

Data set [1] is filed under the species Mus musculus. Briefly: Analgesic activity in mouse by tail-flick test relative to morphine. The data set is classed as functional. (In general: In hot-plate and tail-flick tests a longer latency is read as antinociception.)
For data set [2], the species on record is Mus musculus. The data set can be described thus: Analgesic activity in mouse assessed as inhibition of p-phenylquinone-induced writhing relative to morphine. It is filed as functional. On the technique in general: Writhing tests count abdominal constrictions after an irritant is injected.
For data set [3], the system named is Canis familiaris. Briefly: Effect on overt behavior in dog assessed as prostration at 4 to 10 mg/kg, iv. On the set-up: dose 4-10 mg/kg, route intravenous. The data set is classed as organism-based, Canis lupus familiaris. The following applies: in vivo.
Data set [4] deals with Mus musculus. The data set can be described thus: Analgesic activity in sc dosed mouse by hot plate test. It is filed as functional.
Data set [5] is filed under the species Mus musculus. Briefly: animal or person. It is filed as functional. The following applies: Tail, sc.
The test system of data set [6] is Canis familiaris. Briefly: Effect on overt behavior in dog assessed as hyperreflexia at 0.05 to 10 mg/kg, iv. It is filed as organism-based, Canis lupus familiaris. Also on record: dose 0.05-10 mg/kg, route intravenous. Conditions: in vivo.
Data set [7] concerns Canis familiaris. The data set can be described thus: Effect on overt behavior in dog assessed as static ataxia at 0.05 to 10 mg/kg, iv. The data set is classed as ADME, organism-based, Canis lupus familiaris. On the set-up: dose 0.05-10 mg/kg, route intravenous. Conditions: in vivo.
Data set [8] deals with Canis familiaris. The data set can be described thus: Effect on overt behavior in dog assessed as depression at 0.05 to 10 mg/kg, iv. The data set is classed as organism-based, Canis lupus familiaris. On the set-up: dose 0.05-10 mg/kg, route intravenous. Conditions: in vivo.
For data set [9], the system named is Mus musculus. The data set can be described thus: Analgesic activity in mouse at 20 mg/kg, sc by hot plate test. It is filed as functional, organism-based. On the set-up: dose 20 mg/kg.
In data set [10] the test system is Mus musculus. The data set can be described thus: Analgesic activity in mouse at 10 mg/kg, sc by tail-flick test. It is filed as functional, organism-based. Also on record: dose 10 mg/kg.
Data set [11] deals with Mus musculus. Briefly: Analgesic activity in mouse at 50 mg/kg, sc by hot plate test. It is filed as functional, organism-based. Also on record: dose 50 mg/kg.

The source made the active and inactive calls. The calls are words filed in the database; no cut-off is given here.

In the case of `CCCCCc1cc(O)c2c(c1)OC(C)(C)[C@@H]1CC[C@@H](O)C[C@@H]21`, the “fold change (FC)” value in the data set filed under Mus musculus [1] is on record as 5; in the data set listed under Mus musculus [2], 20. In addition, in the data set with Canis familiaris [3], the Activity result is reported as “Toxic”. The ED50 with Mus musculus [4] stood at 1.6 mg/kg; in the data set filed under Mus musculus [5], 1 mg/kg.
As for `CCCCCc1cc(O)c2c(c1)OC(C)(C)[C@@H]1CC[C@H](O)C[C@@H]21`, in the data set with Canis familiaris [3], the Activity entry was “Toxic”.
Turning to `CCCCCc1cc(O)c2c3c(c(=O)oc2c1)CCC(O)C3` (racemic), the Activity entry with Canis familiaris [3] is recorded as “Toxic”; with Canis familiaris [6], “Non-toxic”; in the data set on Canis familiaris [7], “Non-toxic”; in the data set on Canis familiaris [8], “Toxic”. In addition, in the data set on Mus musculus [9], the result was inactive.
On to `CCCCCc1cc(O)c2c(c1)OC(C)(C)c1ccc(O)cc1-2`, for which the Activity result is listed as “Toxic” in the data set with Canis familiaris [3], “Non-toxic” in the data set with Canis familiaris [6], “Non-toxic” in the data set on Canis familiaris [7] and “Toxic” in the data set with Canis familiaris [8]. This molecule returned an ED50 with Mus musculus [4] of 35.6 mg/kg. Also, the result with Mus musculus [10] was inactive.
`CCCCCc1cc(O)c2c(c1)OC(C)(C)C1=C2CC(O)CC1` (racemic): the Activity entry in the data set on Canis familiaris [3], with Canis familiaris [6] and in the data set with Canis familiaris [7] was “Toxic” in each case. Besides, the outcome in the data set on Mus musculus [11] was inactive.
With `CCCCCc1cc(O)c2c(c1)OC(C)(C)[C@@H]1CCC(C)=C[C@@H]21` [DRONABINOL], the Activity entry in the data set with Canis familiaris [3] is on record as “Toxic”.
As to `CCCCCc1cc(O)c2c(c1)OC(C)(C)[C@@H]1CC[C@@H](O)C=C21` (racemic), the Activity entry in the data set on Canis familiaris [3], in the data set on Canis familiaris [6] and with Canis familiaris [7] was “Toxic” in each case. Further, in the data set on Mus musculus [11], the outcome was inactive.
Turning to `CN1CC[C@]23c4c5ccc(O)c4O[C@H]2[C@@H](O)C=C[C@H]3[C@H]1C5.Cl` [MORPHINE HYDROCHLORIDE], in the data set with Mus musculus [4], it took a dose of 1.2 mg/kg to reach the 50% effect level (ED50).
Regarding `CCCCCc1cc(O)c2c(c1)OC(C)(C)C1CCC(O)CC21` (racemic), the Activity result in the data set on Canis familiaris [3] is “Toxic”. The molecule further yielded an ED50 with Mus musculus [4] of 2.9 mg/kg.
Take `CCCCCc1cc(O)c2c(c1)OC(C)(C)[C@H]1CC[C@H](O)C[C@H]21`: in the data set with Canis familiaris [3], the Activity result is recorded as “Toxic”.

By ED50 is commonly meant the midpoint of the dose-response relation.
